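How tested: cells in 96-well plates exposed to compound for 48 hours at five concentrations. Definition used: TGI = concentration required for complete inhibition of growth.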
Columns and labels:
Assay in all cases: NCI anticancer screen, dose series, 48 h
[1] = tested on: 786-0 renal
[2] = tested on: A498 renal
[3] = tested on: A549 NSCLC
[4] = tested on: ACHN renal
[5] = tested on: BT-549 breast
[6] = tested on: CAKI-1 renal
[7] = tested on: CCRF-CEM leukemia
[8] = tested on: COLO 205 colon
[9] = tested on: DU-145 prostate
[10] = tested on: EKVX NSCLC
[11] = tested on: HCC-2998 colon
[12] = tested on: HCT-116 colon
[13] = tested on: HCT-15 colon
[14] = tested on: HL-60(TB) leukemia
[15] = tested on: HOP-62 NSCLC
[16] = tested on: HOP-92 NSCLC
[17] = tested on: HS 578T breast
[18] = tested on: HT29 colon
[19] = tested on: IGROV1 ovarian
[20] = tested on: K-562 leukemia
[21] = tested on: KM12 colon
[22] = tested on: LOX IMVI melanoma
[23] = tested on: M14 melanoma
[24] = tested on: MCF7 breast
[25] = tested on: MDA-MB-231 breast
[26] = tested on: MDA-MB-435
[27] = tested on: MDA-N
[28] = tested on: MOLT-4 leukemia
[29] = tested on: NCI-H23 lung
[30] = tested on: NCI-H460 lung
[31] = tested on: NCI-H522 lung
[32] = tested on: NCI/ADR-RES ovarian
[33] = tested on: OVCAR-3 ovarian
[34] = tested on: OVCAR-4 ovarian
[35] = tested on: OVCAR-5 ovarian
[36] = tested on: OVCAR-8 ovarian
[37] = tested on: PC-3 prostate
[38] = tested on: RXF 393 renal
[39] = tested on: SF-268 CNS
[40] = tested on: SF-295 CNS
[41] = tested on: SF-539 CNS
[42] = tested on: SK-MEL-2 melanoma
[43] = tested on: SK-MEL-28 melanoma
[44] = tested on: SK-MEL-5 melanoma
[45] = tested on: SN12C renal
[46] = tested on: SNB-19 CNS
[47] = tested on: SR leukemia
[48] = tested on: SW-620 colon
[49] = tested on: T-47D breast
[50] = tested on: TK-10 renal
[51] = tested on: U251 CNS
[52] = tested on: UACC-257 melanoma
[53] = tested on: UACC-62 melanoma
[54] = tested on: UO-31 renal
[55] = tested on: NCI-H226 lung
[56] = tested on: RPMI-8226 leukemia
[57] = tested on: SK-OV-3 ovarian
[58] = tested on: SNB-75 CNS

CC(C)(C)c1cc2c(O)c(c1)C(c1ccccc1)c1cc(C(C)(C)C)cc(c1O)Cc1cc(C(C)(C)C)cc(c1O)C(c1ccccc1)c1cc(C(C)(C)C)cc(c1O)C2 (stereo not drawn)
TGI [1]: > 100 µM | TGI [2]: > 100 µM | TGI [3]: > 100 µM | TGI [4]: > 100 µM | TGI [5]: > 100 µM | TGI [6]: > 100 µM | TGI [7]: > 100 µM | TGI [8]: > 100 µM | TGI [9]: > 100 µM | TGI [10]: > 100 µM | TGI [11]: > 100 µM | TGI [12]: > 100 µM | TGI [13]: > 100 µM | TGI [14]: > 100 µM | TGI [15]: > 100 µM | TGI [16]: > 100 µM | TGI [17]: > 100 µM | TGI [18]: > 100 µM | TGI [19]: > 100 µM | TGI [20]: > 100 µM | TGI [21]: > 100 µM | TGI [22]: > 100 µM | TGI [23]: > 100 µM | TGI [24]: > 100 µM | TGI [25]: > 100 µM | TGI [26]: > 100 µM | TGI [27]: > 100 µM | TGI [28]: > 100 µM | TGI [29]: > 100 µM | TGI [30]: > 100 µM | TGI [31]: > 100 µM | TGI [32]: > 100 µM | TGI [33]: > 100 µM | TGI [34]: > 100 µM | TGI [35]: > 100 µM | TGI [36]: > 100 µM | TGI [37]: > 100 µM | TGI [38]: > 100 µM | TGI [39]: > 100 µM | TGI [40]: > 100 µM | TGI [41]: > 100 µM | TGI [42]: > 100 µM | TGI [43]: > 100 µM | TGI [44]: > 100 µM | TGI [45]: > 100 µM | TGI [46]: > 100 µM | TGI [47]: > 100 µM | TGI [48]: > 100 µM | TGI [49]: > 100 µM | TGI [50]: > 100 µM | TGI [51]: > 100 µM | TGI [52]: > 100 µM | TGI [53]: > 100 µM | TGI [54]: > 100 µM

O=C(Cc1ccc(OCc2cccc(Cl)c2)cc1)NO
TGI [1]: 43.5 µM | TGI [2]: 27 µM | TGI [3]: > 100 µM | TGI [4]: 86 µM | TGI [5]: > 100 µM | TGI [6]: 68.2 µM | TGI [7]: 42.5 µM | TGI [8]: > 100 µM | TGI [9]: 66.2 µM | TGI [10]: > 100 µM | TGI [11]: > 100 µM | TGI [12]: > 100 µM | TGI [13]: > 100 µM | TGI [14]: 44.9 µM | TGI [15]: > 100 µM | TGI [16]: > 100 µM | TGI [17]: > 100 µM | TGI [18]: > 100 µM | TGI [19]: > 100 µM | TGI [20]: > 100 µM | TGI [21]: > 100 µM | TGI [22]: 49 µM | TGI [23]: > 100 µM | TGI [24]: > 100 µM | TGI [25]: > 100 µM | TGI [26]: > 100 µM | TGI [27]: > 100 µM | TGI [28]: 33.1 µM | TGI [55]: 65.4 µM | TGI [29]: > 100 µM | TGI [30]: > 100 µM | TGI [31]: > 100 µM | TGI [32]: 39.3 µM | TGI [33]: > 100 µM | TGI [34]: 82.7 µM | TGI [35]: > 100 µM | TGI [36]: 34.5 µM | TGI [37]: > 100 µM | TGI [56]: 50.8 µM | TGI [38]: > 100 µM | TGI [39]: > 100 µM | TGI [40]: > 100 µM | TGI [41]: > 100 µM | TGI [42]: > 100 µM | TGI [43]: > 100 µM | TGI [44]: > 100 µM | TGI [57]: > 100 µM | TGI [45]: 76.5 µM | TGI [46]: > 100 µM | TGI [58]: > 100 µM | TGI [47]: 32.5 µM | TGI [48]: > 100 µM | TGI [49]: 46.2 µM | TGI [50]: > 100 µM | TGI [51]: > 100 µM | TGI [52]: > 100 µM | TGI [53]: 55.4 µM | TGI [54]: 50.4 µM

C=CC(O)C#Cc1cnc(OC)nc1OC (stereo not drawn)
TGI [1]: > 100 µM | TGI [2]: 33 µM | TGI [3]: > 100 µM | TGI [4]: > 100 µM | TGI [5]: > 100 µM | TGI [6]: > 100 µM | TGI [7]: 47.9 µM | TGI [8]: > 100 µM | TGI [9]: > 100 µM | TGI [10]: > 100 µM | TGI [11]: > 100 µM | TGI [12]: > 100 µM | TGI [13]: > 100 µM | TGI [14]: 43.9 µM | TGI [15]: > 100 µM | TGI [16]: > 100 µM | TGI [17]: > 100 µM | TGI [18]: > 100 µM | TGI [19]: > 100 µM | TGI [20]: 66.6 µM | TGI [21]: > 100 µM | TGI [22]: > 100 µM | TGI [23]: > 100 µM | TGI [24]: > 100 µM | TGI [25]: > 100 µM | TGI [26]: > 100 µM | TGI [27]: > 100 µM | TGI [28]: > 100 µM | TGI [55]: > 100 µM | TGI [29]: > 100 µM | TGI [30]: > 100 µM | TGI [31]: > 100 µM | TGI [32]: > 100 µM | TGI [33]: > 100 µM | TGI [34]: > 100 µM | TGI [35]: > 100 µM | TGI [36]: > 100 µM | TGI [37]: > 100 µM | TGI [38]: > 100 µM | TGI [39]: > 100 µM | TGI [40]: > 100 µM | TGI [41]: > 100 µM | TGI [42]: > 100 µM | TGI [43]: > 100 µM | TGI [44]: > 100 µM | TGI [45]: > 100 µM | TGI [46]: > 100 µM | TGI [58]: > 100 µM | TGI [47]: > 100 µM | TGI [48]: > 100 µM | TGI [49]: > 100 µM | TGI [50]: > 100 µM | TGI [51]: > 100 µM | TGI [52]: > 100 µM | TGI [53]: > 100 µM | TGI [54]: > 100 µM
